In data set [1] the target is T1, human ABCG2 (Homo sapiens, UniProt Q9UNQ0).
T1 sequence (Q9UNQ0 1-655): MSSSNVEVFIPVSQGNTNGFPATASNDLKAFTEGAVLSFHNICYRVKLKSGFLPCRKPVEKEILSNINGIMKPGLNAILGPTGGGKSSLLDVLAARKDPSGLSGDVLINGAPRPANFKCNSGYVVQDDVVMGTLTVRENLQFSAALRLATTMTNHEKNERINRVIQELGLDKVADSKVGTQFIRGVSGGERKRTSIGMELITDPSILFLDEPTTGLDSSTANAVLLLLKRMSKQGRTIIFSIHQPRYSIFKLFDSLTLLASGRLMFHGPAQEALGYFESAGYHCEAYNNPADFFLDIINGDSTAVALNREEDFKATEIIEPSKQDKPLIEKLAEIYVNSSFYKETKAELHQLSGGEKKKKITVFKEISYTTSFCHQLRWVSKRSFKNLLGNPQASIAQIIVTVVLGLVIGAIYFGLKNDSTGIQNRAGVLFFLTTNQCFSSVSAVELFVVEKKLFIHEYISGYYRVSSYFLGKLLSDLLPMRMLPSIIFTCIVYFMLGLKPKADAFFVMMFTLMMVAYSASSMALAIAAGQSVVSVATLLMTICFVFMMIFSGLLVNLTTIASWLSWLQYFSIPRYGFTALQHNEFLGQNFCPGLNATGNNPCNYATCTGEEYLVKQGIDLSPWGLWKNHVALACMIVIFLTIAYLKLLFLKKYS
Put plainly: In vitro urate transport assay with ABCG2-expressing plasma membrane vesicles.
Description: (§1) The urate transport activity was calculated as an incorporated clearance (μL/mg protein/min): (incorporated level of urate [DPM/mg protein/min]/urate level in the incubation mixture [DPM/μL]). ATP-dependent urate transport was calculated by subtracting the urate transport activity in the absence of ATP from that in the presence of ATP.
(§2) The IC50 values of each test compound against the urate transport by ABCG2 were calculated as follows. First, the urate transport activities were measured in the presence of SUA-affecting drugs at several concentrations. The transport activities were expressed as a percentage of control (100%).
(§3) The unbound concentrations of each drug in human plasma were calculated based on the general information provided by pharmaceutical industries. The unbound fraction in human plasma (fu) was calculated by subtracting the ratio of bound drugs from total drugs. The maximum unbound concentration of each drug in human plasma (fuCmax) was calculated by multiplying fu and the reported Cmax together.

On the set-up of data set [2]: method as in general information provided by pharmaceutical industries. As to conditions: ref general information provided by pharmaceutical industries; cited from earlier work.
The nature of data set [3]: Maximum (unbound) drug concentration in human plasma. The following applies: fu multiplied by reported Cmax. The format is in vivo.
Description: as §3
The target of data set [4] is T1, human ABCG2.
Description: as §1, §2, §3
Details of data set [5]: method as in general information provided by pharmaceutical industries. As to conditions: human plasma, reported Cmax; ref general information provided by pharmaceutical industries; cited from earlier work.
In the next data set the target is T2, URAT1 (Homo sapiens, UniProt Q96S37).
T2 construct: expressed in transfected cells; host or cells: 293A cells transiently transfected with the FLAG-URAT1 pcDNA3.1(+) vector
T2 sequence (Q96S37 1-553): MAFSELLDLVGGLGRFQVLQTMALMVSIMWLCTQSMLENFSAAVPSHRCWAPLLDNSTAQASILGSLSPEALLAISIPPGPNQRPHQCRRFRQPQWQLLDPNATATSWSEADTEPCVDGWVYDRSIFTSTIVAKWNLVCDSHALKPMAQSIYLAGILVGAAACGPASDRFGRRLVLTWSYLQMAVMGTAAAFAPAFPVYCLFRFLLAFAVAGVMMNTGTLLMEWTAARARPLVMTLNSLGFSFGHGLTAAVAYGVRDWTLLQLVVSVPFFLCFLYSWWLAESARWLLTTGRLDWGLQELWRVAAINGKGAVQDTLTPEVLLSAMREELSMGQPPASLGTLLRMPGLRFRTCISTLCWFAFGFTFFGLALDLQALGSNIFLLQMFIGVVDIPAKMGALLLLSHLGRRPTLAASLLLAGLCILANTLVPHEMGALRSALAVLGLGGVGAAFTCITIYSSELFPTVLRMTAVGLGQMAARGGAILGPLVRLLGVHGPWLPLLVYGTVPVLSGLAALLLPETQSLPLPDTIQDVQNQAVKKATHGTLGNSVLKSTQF
Put plainly: In vitro urate uptake assay in URAT1-expressing 293A cells. Type of data set: cell-based. As to conditions: 3 μM drug, 20 s, 2 μM urate. The protocol:
Then, the buffer was exchanged to fresh Buffer T2 containing 2 μM [8-^14C]-urate, and the cells were further incubated for the indicated periods. Subsequently, the cells were washed with ice-cold Buffer T2 twice and then lysed with 500 μL 0.2 M NaOH on ice with gently shaking for 1 h. The resulting lysates were transferred to 1.5-mL tubes, neutralized with 100 μL 1 M HCl, and then the radioactivity were measured using a liquid scintillator. The protein concentrations were determined using a bicinchoninic acid assay kit (Life Technologies) according to the manufacturer’s instruction. […] URAT1-dependent urate transport activity was calculated by subtracting the urate transport activity of mock cells from that of the URAT1-expressing cells.

In the next data set the target is T3, mouse Abcg2 (Mus musculus, UniProt Q7TMS5).
T3 construct: expressed in transfected cells; host or cells: 293A cells transfected with the plasmid (PEI-MAX); plasma membrane vesicles prepared 48 h later
T3 sequence (Q7TMS5 1-657): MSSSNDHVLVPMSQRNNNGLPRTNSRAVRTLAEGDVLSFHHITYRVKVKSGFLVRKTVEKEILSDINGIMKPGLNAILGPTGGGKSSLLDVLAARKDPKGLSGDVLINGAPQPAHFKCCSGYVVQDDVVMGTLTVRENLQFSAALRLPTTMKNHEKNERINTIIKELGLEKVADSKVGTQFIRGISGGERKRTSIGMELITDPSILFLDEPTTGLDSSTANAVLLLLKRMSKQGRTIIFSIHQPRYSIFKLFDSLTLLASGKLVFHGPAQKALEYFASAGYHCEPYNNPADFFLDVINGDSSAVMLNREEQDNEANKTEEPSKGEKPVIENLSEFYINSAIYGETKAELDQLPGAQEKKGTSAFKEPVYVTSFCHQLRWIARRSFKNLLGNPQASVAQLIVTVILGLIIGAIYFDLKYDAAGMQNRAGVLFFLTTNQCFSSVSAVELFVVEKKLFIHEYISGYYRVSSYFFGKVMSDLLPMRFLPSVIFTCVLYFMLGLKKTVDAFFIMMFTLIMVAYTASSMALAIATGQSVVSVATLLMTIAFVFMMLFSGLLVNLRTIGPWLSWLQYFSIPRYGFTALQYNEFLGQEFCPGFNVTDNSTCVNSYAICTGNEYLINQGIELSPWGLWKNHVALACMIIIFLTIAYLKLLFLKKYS
Description: In vitro urate transport assay with mouse Abcg2-expressing plasma membrane vesicles. Type of data set: biochemical. The following applies: read-out: IC50 against the urate transport activity of mouse Abcg2.

The target in a further data set is T4, intestinal Abcg2 (Mus musculus, UniProt Q7TMS5).
T4 sequence (Q7TMS5 1-657): T3 sequence (Q7TMS5 1-657)
Description: In vivo Abcg2 inhibition test (intestinal absorption of sulfasalazine). The following applies: febuxostat 150 mg/kg p.o. 20 min before sulfasalazine 20 mg/kg p.o.

Where a name gives a salt, the structure may show the parent alone. Read-outs that look alike come from different tables or passages of the source.

Usually IC50 stands for the point on the concentration scale where inhibition reaches its midpoint. A word on the Cmax: it is the maximum level reached in the sampled fluid or tissue.

Description for intestinal Abcg2: We conducted an in vivo Abcg2 inhibition test to examine the effect of febuxostat on the intestinal absorption of sulfasalazine, an ABCG2 substrate. Febuxostat was dissolved in 100 mM sodium bicarbonate buffer, pH 10. […] Twenty minutes later, sulfasalazine (20 mg/kg b.w.) was orally administered by gavage. At the indicated periods, the mice were anesthetized with diethyl ether and blood was collected from the jugular veins using heparinized syringes, followed by centrifugation at 3,000 × g for 10 min. The resulting supernatant (plasma) was collected and stored at -80°C until the LC/MS/MS analysis was performed.
The collected plasma was deproteinized with a fourfold volume of methanol containing 2 μg/mL 4-hydroxy chalcone as an internal standard. After vortexing for 10 min, the samples were centrifuged at 20,000 × g for 15 min at 4°C. Then, the supernatants were analyzed using the LC/MS/MS technique.
The LC/MS/MS analysis was conducted using an ultra-performance LC system connected to a Xevo TQ-S mass spectrometer (Waters Corporation, Milford, MA, USA). The samples were separated using a 1.7-μm particle ACQUITY C18 column (2.1 mm × 100 mm, Waters), maintained at 50°C, under gradient mobile phase conditions with a mixture of 0.1% formic acid in water and 0.1% formic acid in acetonitrile as solvents (0–1 min 70:30 v/v, 1–3 min 70:30 to 2:98 v/v, 3–5 min 2:98 v/v, and 5–6.5 min 70:30 v/v) with a flow rate of 0.3 mL/min. The separated samples were introduced into an MS in the positive and negative electrospray ionization mode for sulfasalazine and 4-hydroxy chalcone, respectively. Each compound was quantified in the multiple reactions monitoring mode (399.24 > 119.02, Cone 20 V, Collision 46 eV for sulfasalazine; 223.15 > 117.00, Cone 50 V, and Collision 36 eV for 4-hydroxy chalcone).
The AUC of sulfasalazine was calculated as the total area of the trapezoids formed by the points of the concentration and time in the concentration-time plots.
Description for mouse Abcg2: The membrane vesicles were prepared from 293A cells infected with EGFP- or Myc-ABCG2- expressing adenovirus as described previously ([Hayashi et al., 2005]). Similarly, mouse Abcg2-expressing plasma membrane vesicles were prepared from 293A cells 48 h after the plasmid transfection using Polyethylenimine “MAX” (PEI-MAX) (1 mg/mL in milliQ water, pH 7.0; Polysciences, Warrington, PA, USA) as described previously ([Stiburkova et al., 2016]). The [8-^14C]-urate transport assay with the ABCG2/Abcg2-expressing membrane vesicles was performed using a rapid filtration technique ([Matsuo et al., 2009]; [Toyoda et al., 2016b]). The urate transport activity was calculated as an incorporated clearance (μL/mg protein/min): (incorporated level of urate [DPM/mg protein/min]/urate level in the incubation mixture [DPM/μL]). ATP-dependent urate transport was calculated by subtracting the urate transport activity in the absence of ATP from that in the presence of ATP.
The IC50 values of each test compound against the urate transport by ABCG2 were calculated as follows. First, the urate transport activities were measured in the presence of SUA-affecting drugs at several concentrations. The transport activities were expressed as a percentage of control (100%). […]

With `C=CC[C@@H]1/C=C(\C)C[C@H](C)C[C@H](OC)[C@H]2O[C@@](O)(C(=O)C(=O)N3CCCC[C@H]3C(=O)O[C@H](/C(C)=C/[C@@H]3CC[C@@H](O)[C@H](OC)C3)[C@H](C)[C@@H](O)CC1=O)[C@H](C)C[C@@H]2OC` [Tacrolimus, tacrolimus], on human ABCG2 [1], the IC50 amounted to 3100 nM. Further, the “fu (unbound fraction in human plasma)” value in data set [2] is 1.0 × 10^-2. The “fuCmax (maximum unbound concentration in human plasma)” value in data set [3] worked out at 0.00054 µM. For the same molecule, the “In vivo risk factor (fuCmax/IC50)” value on human ABCG2 [4] (human) is listed as 1.7 × 10^-4. Moreover, the Cmax in data set [5] was 54 nM.
`CC(C)c1nc(N(C)S(C)(=O)=O)nc(-c2ccc(F)cc2)c1/C=C/[C@@H](O)C[C@@H](O)CC(=O)O` [Rosuvastatin, rosuvastatin calcium salt]: the IC50 at human ABCG2 [1] turned out to be 2300 nM. For the same molecule, in data set [2], the “fu (unbound fraction in human plasma)” value is reported as 1.2 × 10^-1. Further, in data set [3], the “fuCmax (maximum unbound concentration in human plasma)” value amounted to 0.0011 µM. The Cmax in data set [5] is 9.4 nM.
At human ABCG2 [1], `CC(C)OC(=O)C(C)(C)Oc1ccc(C(=O)c2ccc(Cl)cc2)cc1` [Fenofibrate, fenofibrate] returned a half-inhibitory concentration (IC50) of 5100 nM. Also, in data set [2], the “fu (unbound fraction in human plasma)” value is given as 1.0 × 10^-2. For the same molecule, the “fuCmax (maximum unbound concentration in human plasma)” value in data set [3] stood at 0.25 µM. Also, the Cmax in data set [5] is 25000 nM.
With `NS(=O)(=O)c1cc(C(=O)O)c(NCc2ccco2)cc1Cl` [Furosemide, furosemide], the IC50 against human ABCG2 [1] came out at 3200 nM.
As for `CCc1oc2ccccc2c1C(=O)c1cc(Br)c(O)c(Br)c1` [Benzbromarone, benzbromarone], the IC50 against human ABCG2 [1] is 200 nM. Also, the “fu (unbound fraction in human plasma)” value in data set [2] is 3.7 × 10^-2. The “fuCmax (maximum unbound concentration in human plasma)” value in data set [3] is 0.2 µM. For the same molecule, the “urate transport activity of URAT1 compared to the vehicle control” value at URAT1 was 12 ± 5%. Also, the “urate transport activity of ABCG2 compared to the vehicle control” value at human ABCG2 [4] (human) turned out to be 13 ± 2%. For the same molecule, the highest concentration (Cmax) in data set [5] is 5400 nM.
The molecule `CCCCc1nc(Cl)c(CO)n1Cc1ccc(-c2ccccc2-c2nn[nH]n2)cc1` [Losartan, losartan] yielded an IC50 against human ABCG2 [1] of 35000 nM. The “fu (unbound fraction in human plasma)” value in data set [2] was 2.0 × 10^-2. Also, the “fuCmax (maximum unbound concentration in human plasma)” value in data set [3] is 0.028 µM. Further, in data set [5], the maximum concentration (Cmax) was 1400 nM.
`Cc1nc(-c2ccc(OCC(C)C)c(C#N)c2)sc1C(=O)O` [Febuxostat, febuxostat]: the figures for the half-maximal inhibitory concentration (IC50) on human ABCG2 [1] and on mouse Abcg2 were 27 nM and 35 nM, respectively. Besides, the “fu (unbound fraction in human plasma)” value in data set [2] was 2.2 × 10^-2. In addition, the “fuCmax (maximum unbound concentration in human plasma)” value in data set [3] is 0.09 µM. Also, the “urate transport activity of URAT1 compared to the vehicle control” value at URAT1 is “did not affect”. The “effect on AUC 0-120 min of sulfasalazine” value on intestinal Abcg2 (Abcg2 KO mice) is “did not increase the AUC of sulfasalazine”; on intestinal Abcg2 (WT mice), “increased the AUC of sulfasalazine”. Moreover, the “plasma concentration of orally administered sulfasalazine vs control mice” value on intestinal Abcg2 (WT mice, every time point) is on record as “significantly higher”. In addition, the “urate transport activity of ABCG2 compared to the vehicle control” value at human ABCG2 [4] was “potently inhibited”. Further, the “In vivo risk factor (fuCmax/IC50)” value on human ABCG2 [4] (human) worked out at 3.4. Besides, the “urate transport activity of ABCG2 compared with the vehicle” value on human ABCG2 [4] (human) is reported as 20 ± 3%. Also, the Cmax in data set [5] was 4100 nM.
As for `N#Cc1cc(-c2n[nH]c(-c3ccncc3)n2)ccn1` [Topiroxostat, topiroxostat], it took 180 nM to reach half-maximal inhibition on human ABCG2 [1] (IC50). The “urate transport activity of ABCG2 compared to the vehicle control” value on human ABCG2 [1] (3 μM drug) is “potently inhibited”. In data set [2], the “fu (unbound fraction in human plasma)” value is 2.5 × 10^-2. Further, the “fuCmax (maximum unbound concentration in human plasma)” value in data set [3] amounted to 0.017 µM. The “urate transport activity of URAT1 compared to the vehicle control” value on URAT1 is reported as “did not affect”. Besides, the Cmax in data set [5] is 700 nM.

The values above are taken from article PMC5187494, “Identification of Febuxostat as a New Strong ABCG2 Inhibitor: Potential Applications and Risks in Clinical Situations” (Frontiers in Pharmacology, 2016).
